Experimental data: the supplement of paper PMC10307832

How the values were obtained:
Assay in all cases: relative viability (nuclei count vs DMSO), 5 days (fraction); higher = more cells survive
Cediranib + Tozasertib = compound: COc1cc2c(Oc3ccc4[nH]c(C)cc4c3F)ncnc2cc1OCCCN1CCCC1 [Cediranib] + Cc1cc(Nc2cc(N3CCN(C)CC3)nc(Sc3ccc(NC(=O)C4CC4)cc3)n2)n[nH]1 [Tozasertib] (partner 0.1 µM)
In short: (§1)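 Five library-drug doses in √10 steps were combined with a fixed anchor-drug dose, or a single drug was given alone, by pin tool to lung cancer cell lines in 1536-well plates the day after seeding. Nuclei were stained and counted after 5 days. Relative viability is the nuclei count in treated wells over that in vehicle wells, taken as the median of duplicate plates.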

Decitabine + Luminespib = compound: Nc1ncn([C@H]2C[C@H](O)[C@@H](CO)O2)c(=O)n1 [Decitabine] + CCNC(=O)c1noc(-c2cc(C(C)C)c(O)cc2O)c1-c1ccc(CN2CCOCC2)cc1 [Luminespib] (partner 0.01 µM)
In short: as §1

Halofuginone + Lapatinib = compound: O=C(C[C@H]1NCCC[C@@H]1O)Cn1cnc2cc(Br)c(Cl)cc2c1=O (racemic) [Halofuginone] + CS(=O)(=O)CCNCc1ccc(-c2ccc3ncnc(Nc4ccc(OCc5cccc(F)c5)c(Cl)c4)c3c2)o1 [Lapatinib] (partner 2 µM)
In short: as §1

[1] = compound: O=C(C[C@H]1NCCC[C@@H]1O)Cn1cnc2cc(Br)c(Cl)cc2c1=O (racemic) [Halofuginone] + N=C(N)NC(=N)NCCc1ccccc1 [Phenformin] (partner 250 µM)
In short: as §1

NCI-H3122 gave a relative viability (Cediranib + Tozasertib; first compound 0.04 µM) of 0.393, a relative viability (Cediranib + Tozasertib; first compound 0.4 µM) of 0.364 and a relative viability (Cediranib + Tozasertib; first compound 1.265 µM) of 0.53. For the same cell line, the relative viability (Cediranib + Tozasertib; first compound 4 µM) was 0.468, the relative viability (Decitabine + Luminespib; first compound 0.04 µM) was 0.0814 and the relative viability (Decitabine + Luminespib; first compound 0.1265 µM) was 0.0807. The relative viability (Decitabine + Luminespib; first compound 0.4 µM) was 0.0785, the relative viability (Decitabine + Luminespib; first compound 1.265 µM) was 0.0889 and the relative viability (Decitabine + Luminespib; first compound 4 µM) was 0.0802. For the same cell line, the relative viability (Halofuginone + Lapatinib; first compound 0.001 µM) was 1.02, the relative viability (Halofuginone + Lapatinib; first compound 0.003162 µM) was 1.05 and the relative viability (Halofuginone + Lapatinib; first compound 0.01 µM) was 0.975. The relative viability (Halofuginone + Lapatinib; first compound 0.03162 µM) was 0.987, the relative viability (Halofuginone + Lapatinib; first compound 0.1 µM) was 1.04 and the relative viability ([1]; first compound 0.001 µM) was 0.379. For the same cell line, the relative viability ([1]; first compound 0.003162 µM) was 0.37, the relative viability ([1]; first compound 0.01 µM) was 0.356 and the relative viability ([1]; first compound 0.03162 µM) was 0.355. It also gave a relative viability ([1]; first compound 0.1 µM) of 0.383.
PC-3 [JPC-3] showed a relative viability (Cediranib + Tozasertib; first compound 0.04 µM) of 0.886, a relative viability (Cediranib + Tozasertib; first compound 0.1265 µM) of 0.906 and a relative viability (Cediranib + Tozasertib; first compound 0.4 µM) of 0.947. It also gave a relative viability (Cediranib + Tozasertib; first compound 1.265 µM) of 0.891, a relative viability (Cediranib + Tozasertib; first compound 4 µM) of 0.876 and a relative viability (Decitabine + Luminespib; first compound 0.04 µM) of 0.43. It also gave a relative viability (Decitabine + Luminespib; first compound 0.1265 µM) of 0.708, a relative viability (Decitabine + Luminespib; first compound 0.4 µM) of 0.454 and a relative viability (Decitabine + Luminespib; first compound 1.265 µM) of 0.408. The relative viability (Decitabine + Luminespib; first compound 4 µM) was 0.488, the relative viability (Halofuginone + Lapatinib; first compound 0.001 µM) was 0.466 and the relative viability (Halofuginone + Lapatinib; first compound 0.003162 µM) was 0.428. For the same cell line, the relative viability (Halofuginone + Lapatinib; first compound 0.01 µM) was 0.436, the relative viability (Halofuginone + Lapatinib; first compound 0.03162 µM) was 0.511 and the relative viability (Halofuginone + Lapatinib; first compound 0.1 µM) was 0.461. It also gave a relative viability ([1]; first compound 0.001 µM) of 0.501, a relative viability ([1]; first compound 0.003162 µM) of 0.453 and a relative viability ([1]; first compound 0.01 µM) of 0.456. The relative viability ([1]; first compound 0.03162 µM) was 0.473 and the relative viability ([1]; first compound 0.1 µM) was 0.443.
With PC-14 the relative viability (Cediranib + Tozasertib; first compound 0.04 µM) was 0.711, the relative viability (Cediranib + Tozasertib; first compound 0.1265 µM) was 0.651 and the relative viability (Cediranib + Tozasertib; first compound 0.4 µM) was 0.585. For the same cell line, the relative viability (Cediranib + Tozasertib; first compound 1.265 µM) was 0.61, the relative viability (Cediranib + Tozasertib; first compound 4 µM) was 0.483 and the relative viability (Decitabine + Luminespib; first compound 0.04 µM) was 0.145. The relative viability (Decitabine + Luminespib; first compound 0.1265 µM) was 0.227, the relative viability (Decitabine + Luminespib; first compound 0.4 µM) was 0.173 and the relative viability (Decitabine + Luminespib; first compound 1.265 µM) was 0.168. For the same cell line, the relative viability (Decitabine + Luminespib; first compound 4 µM) was 0.131, the relative viability (Halofuginone + Lapatinib; first compound 0.001 µM) was 0.325 and the relative viability (Halofuginone + Lapatinib; first compound 0.003162 µM) was 0.311. The relative viability (Halofuginone + Lapatinib; first compound 0.01 µM) was 0.343, the relative viability (Halofuginone + Lapatinib; first compound 0.03162 µM) was 0.419 and the relative viability (Halofuginone + Lapatinib; first compound 0.1 µM) was 0.313. It also gave a relative viability ([1]; first compound 0.001 µM) of 0.563, a relative viability ([1]; first compound 0.003162 µM) of 0.553 and a relative viability ([1]; first compound 0.01 µM) of 0.565. For the same cell line, the relative viability ([1]; first compound 0.03162 µM) was 0.606 and the relative viability ([1]; first compound 0.1 µM) was 0.281.
RERF-LC-KJ was tested, and the relative viability (Cediranib + Tozasertib; first compound 0.04 µM) was 0.598, the relative viability (Cediranib + Tozasertib; first compound 0.1265 µM) was 0.535 and the relative viability (Cediranib + Tozasertib; first compound 0.4 µM) was 0.469. The relative viability (Cediranib + Tozasertib; first compound 1.265 µM) was 0.544, the relative viability (Cediranib + Tozasertib; first compound 4 µM) was 0.464 and the relative viability (Decitabine + Luminespib; first compound 0.04 µM) was 1.18. It also gave a relative viability (Decitabine + Luminespib; first compound 0.1265 µM) of 1.01, a relative viability (Decitabine + Luminespib; first compound 1.265 µM) of 0.582 and a relative viability (Decitabine + Luminespib; first compound 4 µM) of 0.685. For the same cell line, the relative viability (Halofuginone + Lapatinib; first compound 0.001 µM) was 0.951, the relative viability (Halofuginone + Lapatinib; first compound 0.003162 µM) was 0.888 and the relative viability (Halofuginone + Lapatinib; first compound 0.01 µM) was 0.795. For the same cell line, the relative viability (Halofuginone + Lapatinib; first compound 0.03162 µM) was 0.833, the relative viability (Halofuginone + Lapatinib; first compound 0.1 µM) was 0.874 and the relative viability ([1]; first compound 0.001 µM) was 0.447. The relative viability ([1]; first compound 0.003162 µM) was 0.436, the relative viability ([1]; first compound 0.01 µM) was 0.381 and the relative viability ([1]; first compound 0.03162 µM) was 0.416. For the same cell line, the relative viability ([1]; first compound 0.1 µM) was 0.423.
For SK-LU-1, the relative viability (Cediranib + Tozasertib; first compound 0.04 µM) was 0.316, the relative viability (Cediranib + Tozasertib; first compound 0.1265 µM) was 0.412 and the relative viability (Cediranib + Tozasertib; first compound 0.4 µM) was 0.305. The relative viability (Cediranib + Tozasertib; first compound 1.265 µM) was 0.365, the relative viability (Cediranib + Tozasertib; first compound 4 µM) was 0.335 and the relative viability (Decitabine + Luminespib; first compound 0.04 µM) was 0.18. For the same cell line, the relative viability (Decitabine + Luminespib; first compound 0.1265 µM) was 0.212, the relative viability (Decitabine + Luminespib; first compound 0.4 µM) was 0.196 and the relative viability (Decitabine + Luminespib; first compound 1.265 µM) was 0.204. For the same cell line, the relative viability (Decitabine + Luminespib; first compound 4 µM) was 0.208, the relative viability (Halofuginone + Lapatinib; first compound 0.001 µM) was 0.945 and the relative viability (Halofuginone + Lapatinib; first compound 0.003162 µM) was 1.04. The relative viability (Halofuginone + Lapatinib; first compound 0.01 µM) was 0.806, the relative viability (Halofuginone + Lapatinib; first compound 0.03162 µM) was 0.787 and the relative viability (Halofuginone + Lapatinib; first compound 0.1 µM) was 0.505. The relative viability ([1]; first compound 0.001 µM) was 0.541, the relative viability ([1]; first compound 0.003162 µM) was 0.636 and the relative viability ([1]; first compound 0.01 µM) was 0.604. For the same cell line, the relative viability ([1]; first compound 0.03162 µM) was 0.415 and the relative viability ([1]; first compound 0.1 µM) was 0.301.
SK-MES-1 gave a relative viability (Cediranib + Tozasertib; first compound 0.04 µM) of 0.903, a relative viability (Cediranib + Tozasertib; first compound 0.1265 µM) of 0.917 and a relative viability (Cediranib + Tozasertib; first compound 0.4 µM) of 0.908. It also gave a relative viability (Cediranib + Tozasertib; first compound 1.265 µM) of 0.924, a relative viability (Cediranib + Tozasertib; first compound 4 µM) of 0.898 and a relative viability (Decitabine + Luminespib; first compound 0.04 µM) of 0.566. For the same cell line, the relative viability (Decitabine + Luminespib; first compound 0.1265 µM) was 0.575, the relative viability (Decitabine + Luminespib; first compound 0.4 µM) was 0.331 and the relative viability (Decitabine + Luminespib; first compound 1.265 µM) was 0.288. For the same cell line, the relative viability (Decitabine + Luminespib; first compound 4 µM) was 0.232, the relative viability (Halofuginone + Lapatinib; first compound 0.001 µM) was 0.486 and the relative viability (Halofuginone + Lapatinib; first compound 0.003162 µM) was 0.454. For the same cell line, the relative viability (Halofuginone + Lapatinib; first compound 0.01 µM) was 0.474, the relative viability (Halofuginone + Lapatinib; first compound 0.03162 µM) was 0.409 and the relative viability (Halofuginone + Lapatinib; first compound 0.1 µM) was 0.342. The relative viability ([1]; first compound 0.001 µM) was 0.657, the relative viability ([1]; first compound 0.003162 µM) was 0.717 and the relative viability ([1]; first compound 0.01 µM) was 0.621. For the same cell line, the relative viability ([1]; first compound 0.03162 µM) was 0.556 and the relative viability ([1]; first compound 0.1 µM) was 0.228.
SW 1573 showed a relative viability (Cediranib + Tozasertib; first compound 0.04 µM) of 0.193, a relative viability (Cediranib + Tozasertib; first compound 0.1265 µM) of 0.179 and a relative viability (Cediranib + Tozasertib; first compound 0.4 µM) of 0.136. For the same cell line, the relative viability (Cediranib + Tozasertib; first compound 1.265 µM) was 0.153, the relative viability (Cediranib + Tozasertib; first compound 4 µM) was 0.18 and the relative viability (Decitabine + Luminespib; first compound 0.04 µM) was 0.135. The relative viability (Decitabine + Luminespib; first compound 0.1265 µM) was 0.172, the relative viability (Decitabine + Luminespib; first compound 0.4 µM) was 0.201 and the relative viability (Decitabine + Luminespib; first compound 1.265 µM) was 0.143. The relative viability (Decitabine + Luminespib; first compound 4 µM) was 0.151, the relative viability (Halofuginone + Lapatinib; first compound 0.001 µM) was 1.13 and the relative viability (Halofuginone + Lapatinib; first compound 0.003162 µM) was 1.29. For the same cell line, the relative viability (Halofuginone + Lapatinib; first compound 0.01 µM) was 1.1, the relative viability (Halofuginone + Lapatinib; first compound 0.03162 µM) was 1.1 and the relative viability (Halofuginone + Lapatinib; first compound 0.1 µM) was 1.07. It also gave a relative viability ([1]; first compound 0.001 µM) of 0.411, a relative viability ([1]; first compound 0.003162 µM) of 0.389 and a relative viability ([1]; first compound 0.01 µM) of 0.378. It also gave a relative viability ([1]; first compound 0.03162 µM) of 0.357 and a relative viability ([1]; first compound 0.1 µM) of 0.205.
